The structures appear in SMILES notation.

As a reminder, the EC50 is the concentration giving half of the maximal effect. A lower EC50 goes with a more potent agent.

The target in the assay is Cell division control protein 42 homolog (Homo sapiens, UniProt P60953). As to the kind of experiment: Cdc42 activated mutant GTP-binding inhibitors, SAR follow-up, biochemical, bead-based multiplex flow cytometry, additional SAR set (AID 2021). (In flow cytometry, cells or beads pass a laser one at a time.)
Chain of Cell division control protein 42 homolog (P60953 whole entry): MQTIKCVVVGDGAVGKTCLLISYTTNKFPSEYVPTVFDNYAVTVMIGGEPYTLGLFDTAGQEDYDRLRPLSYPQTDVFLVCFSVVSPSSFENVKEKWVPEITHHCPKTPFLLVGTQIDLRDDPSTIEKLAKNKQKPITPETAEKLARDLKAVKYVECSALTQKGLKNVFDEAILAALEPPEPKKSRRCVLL
Consider `O=C1N=c2ccc(Br)cc2=C1c1[nH]c2ccccc2c1NO` [5-bromanyl-3-[3-(oxidanylamino)-1H-indol-2-yl]indol-2-one], for which the EC50 was found to be 30 µM.

In turn, `O=C1Nc2c(F)cccc2C1=C1Nc2ccccc2C1=O` had an EC50 of 30 µM.

`O=C1Nc2c(Cl)cccc2C1=C1Nc2ccccc2C1=O` gave an EC50 of 30 µM.

As to `O=C1N=c2c(F)cccc2=C1c1[nH]c2ccccc2c1NO` [7-fluoro-3-[3-(hydroxyamino)-1H-indol-2-yl]-2-indolone], the EC50 came out at 30 µM.

`O=C1NC(=O)/C(=C2/C(=O)Nc3ccccc32)N1` returned an EC50 of 5.26 µM.

`O=C1N=c2c(Br)cccc2=C1c1[nH]c2ccccc2c1NO` [7-bromanyl-3-[3-(oxidanylamino)-1H-indol-2-yl]indol-2-one]: the half-maximal effective concentration (EC50) worked out at 55.1 µM.

Turning to `O=C1Nc2ccccc2/C1=C1/Nc2ccccc2C1=O` [2-[(3Z)-2-oxo-2,3-dihydro-1H-indol-3-ylidene]-2,3-dihydro-1H-indol-3-one], a half-maximal response (EC50) required 30 µM.

Regarding `O=C1N=c2c(Cl)cccc2=C1c1[nH]c2ccccc2c1NO` [7-chloro-3-[3-(hydroxyamino)-1H-indol-2-yl]-2-indolone], the EC50 turned out to be 30 µM.

The molecule `O=C1NC(=S)N/C1=C1\C(=O)Nc2ccccc21` [(3Z)-3-(5-oxo-2-sulfanylideneimidazolidin-4-ylidene)-1H-indol-2-one] had an EC50 of 30 µM.

In turn, `O=C1Nc2ccc(Br)cc2C1=C1Nc2ccccc2C1=O` returned an EC50 of 30 µM.

Regarding `O=C1N=c2ccccc2=C1c1[nH]c2ccccc2c1NO` [3-[3-(hydroxyamino)-1H-indol-2-yl]-2-indolone], the EC50 was 30 µM.

In turn, `O=C1Nc2c(Br)cccc2C1=C1Nc2ccccc2C1=O` returned an EC50 of 30 µM.

Values taken from BindingDB's records for doi:10.7270/Q26H4FT9 (Nmmlsc, 2009).
